Results on 58 compounds are retold here after a melting point compilation (Tetko et al.).

The term melting point denotes the temperature, or range, at which the solid turns liquid. `CC(=O)NC1C(OCc2ccccc2)OC(COCc2ccccc2)C(OC2OC(COCc3ccccc3)C(OCc3ccccc3)C(OCc3ccccc3)C2NC(C)=O)C1O` (stereo not drawn) registered a melting point of 220 to 222 °C.

`CCCCCCCCCCCCCCCC(=O)OCC(CSCC(NC(=O)OCc1cccc2c1Cc1ccccc1-2)C(=O)OC(C)(C)C)OC(=O)CCCCCCCCCCCCCCC` (mixture of isomers) registered a melting point of 52 to 54 °C.

`CC(=O)OCC(CNC(=O)c1c(I)c(NC(=O)C2CCCO2)c(I)c(C(=O)NCC(COC(C)=O)OC(C)=O)c1I)OC(C)=O` (stereo not drawn) came in with a melting point of 101 to 104 °C.

For the compound `COc1ccc(C(O)CNCc2ccccc2[N+](=O)[O-])cc1OC` (stereo not drawn), the melting point was in the range of 120 to 121 °C.

In the case of `CCCCCCCCCCCCCCCCCCCCCC(=O)OCCN(CCOC(=O)CCCCCCCCCCCCCCCCCCCCC)CC(=O)O`, the melting point fell in the range of 73 to 75 °C.

As to `CC[C@H](C)[C@H](NC(=O)OCC1c2ccccc2-c2ccccc21)C(=O)N[C@@H](Cc1ccc(OC(C)(C)C)cc1)C(=O)N[C@@H](C)C(=O)NCc1c(OC)ccc2c1Oc1c(ccc(OC)c1CC(=O)OCc1ccccc1)C2(C)C`, the melting point lay in the range of 218 to 220 °C.

In turn, `CCn1cc(C(=O)N[C@@H]2C(=O)N[C@@H]2C(=O)OC)c(=O)c2ccc(C)nc21` (relative stereo) displayed a melting point of 223 to 224 °C.

In the case of `CCCCCCCCCCCCC=CCCC(Cl)CC1CC(=O)N(N(c2ccccc2)c2[nH]n(-c3c(Cl)cc(Cl)cc3Cl)c(=O)c2OC(=O)c2cc([N+](=O)[O-])ccc2N)C1=O` (stereo not drawn), the melting point was 118 to 121 °C.

As to `O=C1C(COCc2ccccc2)N(Cc2ccccc2)CCN(Cc2ccccc2)C(COCc2ccccc2)C(=O)N(Cc2ccccc2)CCN1Cc1ccccc1` (stereo not drawn), the melting point is 86 to 87 °C.

For `CCCCc1c(CC[Si](Cl)(Cl)Cl)c(CC[Si](Cl)(Cl)Cl)c(CC[Si](Cl)(Cl)Cl)c(CC[Si](Cl)(Cl)Cl)c1CC[Si](Cl)(Cl)Cl`, the melting point lay within 228 to 235 °C.

The compound `CC(=O)Oc1c(C)cc(Oc2ccc3nc(COc4ccc(CC5SC(=O)N(C(c6ccccc6)(c6ccccc6)c6ccccc6)C5=O)cc4)n(C)c3n2)c(C)c1C` (stereo not drawn) yielded a melting point of 190 to 191 °C.

Regarding `O=C(NCC(O)CO)c1c(I)c(C(=O)NCC(O)CO)c(I)c(N(CCCN(C(=O)CO)c2c(I)c(C(=O)NCC(O)CO)c(I)c(C(=O)NCC(O)CO)c2I)C(=O)CO)c1I` (stereo not drawn), the melting point lay within 234 to 236 °C.

`CCC1(CC)c2cc(-c3nc4ccccc4s3)ccc2-c2ccc(N(c3ccc4c(c3)C(CC)(CC)c3cc(-c5nc6ccccc6s5)ccc3-4)C3CCCCC3)cc21` had a melting point of 262 to 264 °C.

In turn, `NC(=O)c1cc(-c2ccccc2)c(=O)n2c1-c1sccc1CC2` returned a melting point of 281 to 282 °C.

In turn, `COc1cccc(-c2cc3ncnc(Nc4ccc5[nH]ccc5c4)c3s2)c1` showed a melting point of 160 to 168 °C.

On to `CCC(C)(C)c1ccc(OCC(=O)Nc2cccc(C(=O)Nc3[nH]n(-c4c(Cl)cc(Cl)cc4Cl)c(=O)c3OC(=O)Nc3ccccc3)c2)c(C(C)(C)CC)c1`, for which the melting point was 72 to 77 °C.

The compound `Cc1c(Nc2c(C#N)cnc3sc(C4=CCN(C)CC4)cc23)ccc2[nH]ccc12` displayed a melting point of 230 °C.

Compound `CC(C)[C@H](NC(=O)N(C)Cc1ccccn1)C(=O)N[C@@H](Cc1ccccc1)C[C@H](OC(=O)CN(C)C)[C@H](Cc1ccccc1)NC(=O)[C@@H](NC(=O)N(C)Cc1ccccn1)C(C)C` came in with a melting point of 109 to 111 °C.

Consider `CC(C)CCCC(C)C1CCC2C3CC=C4CC(N(CCCNC(=O)CCNC(=O)CCNC(=O)CCCCCNc5ccc([N+](=O)[O-])cc5[N+](=O)[O-])S(=O)(=O)c5ccccc5[N+](=O)[O-])CCC4(C)C3CCC12C` (stereo not drawn), for which the melting point is 106 to 108 °C.

On to `C=CC(=O)OCCCCCCOc1ccc(C(=O)Oc2ccc(OC(=O)c3ccc(OCCCCCCOC(=O)C=C)cc3)c(C(=O)OCCCCCCCCOC(=O)c3ccco3)c2)cc1`, for which the melting point was 36 °C.

Compound `CCCCc1nc2c(N)nc3ccccc3c2n1CCCCNC(=O)Nc1ccc(Oc2ccc(NC(=O)NCCCCn3c(CCCC)nc4c(N)nc5ccccc5c43)cc2)cc1` showed a melting point of 152 to 156 °C.

The compound `CCCCCCCCCCCCN1C(=O)NC2(CC(C)(C)N(CC(O)COc3ccc(C(C)(C)c4ccc(OCC(O)CN5C(C)(C)CC6(CC5(C)C)NC(=O)N(CCCCCCCCCCCC)C6=O)cc4)cc3)C(C)(C)C2)C1=O` (stereo not drawn) came in with a melting point of 159 to 161 °C.

In turn, `COc1cc(OC)c(/C=C/C(c2ccc(OC)c(NC(=N)N)c2)S(=O)(=O)C(/C=C/c2c(OC)cc(OC)cc2OC)c2ccc(OC)c(NC(=N)N)c2)c(OC)c1` (stereo not drawn) had a melting point of 174 to 176 °C.

For the compound `CC(C)(O)CON1C(C)(C)CC(CCCCNc2nc(NCCCCC3CC(C)(C)N(OCC(C)(C)O)C(C)(C)C3)nc(NCCCCC3CC(C)(C)N(OCC(C)(C)O)C(C)(C)C3)n2)CC1(C)C`, the melting point is 172 to 176 °C.

Consider `Cc1ccc(Br)cc1C`, for which the melting point was -0.2 °C.

In turn, `NC(=O)c1cnn(-c2ncc(C(F)(F)F)cc2Cl)c1NC(=O)C1(F)CC1` registered a melting point of 204 °C.

In turn, `CCOC1OC(CO)C(OC2OC(COC(C)=O)C(OC3OC(COC(C)=O)C(OC(C)=O)C(OC(C)=O)C3OC(C)=O)C(OC(C)=O)C2OC(C)=O)C(O)C1NC(C)=O` (stereo not drawn) gave a melting point of 260 to 262 °C.

The compound `Nc1n[nH]cc1C(=O)O` came in with a melting point of 135 °C.

Take `O=P(O)(C(F)(F)C(F)(F)C(F)(F)C(F)(F)C(F)(C(F)(F)F)C(F)(F)F)C(F)(F)C(F)(F)C(F)(F)C(F)(F)C(F)(C(F)(F)F)C(F)(F)F`: the melting point lay within 91 to 94 °C.

Compound `CCCCCCCCCCOc1cc2c3cc(OCCCCCCCCCC)c(OCCCCCCCCCC)cc3c3c(OC)ccc(OC)c3c2cc1OCCCCCCCCCC` registered a melting point of 69 to 70 °C.

Take `CCCc1c(CC[Si](Cl)(Cl)Cl)c(CC[Si](Cl)(Cl)Cl)c(CC[Si](Cl)(Cl)Cl)c(CC[Si](Cl)(Cl)Cl)c1CC[Si](Cl)(Cl)Cl`: the melting point fell in the range of 211 to 216 °C.

`Cc1ccn2c(-c3ccnc(-c4ccc(OCc5cn(C)cn5)cc4)c3)c(-c3cccc(C)n3)nc2c1` gave a melting point of 217 °C.

`CCN(C(=O)OC(C)(C)C)C(=NC(=O)OC(C)(C)C)N1CCN(C(=O)[C@@H]2CCCN2S(=O)(=O)c2ccc(Cl)c(COc3cccc4ccc(C)nc34)c2Cl)CC1` came in with a melting point of 95 °C.

Regarding `CCCCCCCCCCCCCCCCCCN(Cc1c(C)cc(C(C)(C)C)c(O)c1C)S(=O)(=O)c1ccc(-c2ccc(S(=O)(=O)N(CCCCCCCCCCCCCCCCCC)Cc3c(C)cc(C(C)(C)C)c(O)c3C)cc2)cc1`, the melting point lay in the range of 208 to 210 °C.

Compound `CCCCCCc1cc(S(C)(=O)=NS(=O)(=O)c2ccc(C)cc2)ccc1O` (stereo not drawn) returned a melting point of 109 to 110 °C.

Consider `CCOC(=O)OC1=C(c2c(C)cc(C)cc2C)C(=O)NC12CCN(N(C)C)CC2`, for which the melting point lay in the range of 162 to 166 °C.

In turn, `CCCCC(CC)COc1cc2c3cc(OCC(CC)CCCC)c(OCC(CC)CCCC)cc3c3c(OC)ccc(OC)c3c2cc1OCC(CC)CCCC` (stereo not drawn) returned a melting point of 54 to 56 °C.

In the case of `[C-]#[N+]c1c(Cl)cc(OC)cc1Cl`, the melting point lay within 110 to 112 °C.

`O=C(NCC(COC(C(F)(F)F)(C(F)(F)F)C(F)(F)F)(COC(C(F)(F)F)(C(F)(F)F)C(F)(F)F)C(=O)O)OCC1c2ccccc2-c2ccccc21` returned a melting point of 104 to 105 °C.

The compound `O=C1CCc2cc(O)c(I)cc21` displayed a melting point of 114 to 115 °C.

`COc1ccc(N2C(=O)C3Cc4[nH]cnc4CN3C2=O)cc1` (stereo not drawn) showed a melting point of 142 to 148 °C.

With `O=C(O)C1=Cc2cc(Br)ccc2NC1C(F)(F)F` (stereo not drawn), the melting point was 185 to 186 °C.

As for `C=CCN1C(C)(C)CC(N(CCCC)c2nc(N(CCCC)C3CC(C)(C)N(CC=C)C(C)(C)C3)nc(N(CCCC)C3CC(C)(C)N(CC=C)C(C)(C)C3)n2)CC1(C)C`, the melting point was 161 to 163 °C.

`CCCC(=O)C(=CNc1ccc(COC(=O)c2ccccc2)cc1)C(=O)OCC` had a melting point of 73 to 75 °C.

As to `CN1CCCC1=NC(=O)Nc1ccc(OCc2ccccc2)cc1`, the melting point is 140 to 142 °C.

In turn, `CC(C)(C)OC(=O)N(CNCCNC(=O)CCOCC(COCCC(=O)NCCNCN(C(=O)OC(C)(C)C)C(=O)OC(C)(C)C)(COCCC(=O)NCCNCN(C(=O)OC(C)(C)C)C(=O)OC(C)(C)C)NC(=O)OCc1ccccc1)C(=O)OC(C)(C)C` gave a melting point of 86 to 88 °C.

`O=C(OCCCCCCOC1CCCCO1)c1ccc(Oc2c3c(c(Oc4ccc(C(=O)OCCCCCCOC5CCCCO5)cc4)c4ccccc24)C(=O)c2ccccc2C3=O)cc1` (stereo not drawn) came in with a melting point of 114 to 117 °C.

Regarding `FC(F)(F)C1(CNC2=NCCN2)CCCCC1`, the melting point was 154 to 157 °C.

Regarding `CC(=O)OCCn1c([N+](=O)[O-])cnc1CO`, the melting point fell in the range of 138 to 145 °C.

In the case of `COc1cc(OC)c(/C=C/C(c2ccc(OC)c(NC(=O)C(F)(F)F)c2)S(=O)(=O)C(/C=C/c2c(OC)cc(OC)cc2OC)c2ccc(OC)c(NC(=O)C(F)(F)F)c2)c(OC)c1` (stereo not drawn), the melting point was 179 to 180 °C.

As to `CC(C)[Si](OC(=O)Cc1cc(I)c(Oc2cc(I)c(O)c(I)c2)c(I)c1)(C(C)C)C(C)C`, the melting point was found to be 146 °C.

In turn, `CC(=O)OCC1OC(n2cc(C3=C(c4cn(S(=O)(=O)c5ccccc5)c5ncccc45)C(=O)N(COCc4ccccc4)C3=O)c3cccnc32)C(OC(C)=O)C(OC(C)=O)C1OC(C)=O` (stereo not drawn) registered a melting point of 108 to 110 °C.

Take `CCCCCCCCN=C(O)c1c(Sc2ccc([N+](=O)[O-])cc2)c(Sc2ccc([N+](=O)[O-])cc2)c(Sc2ccc([N+](=O)[O-])cc2)c(Sc2ccc([N+](=O)[O-])cc2)c1C(=O)O`: the melting point fell in the range of 202 to 204 °C.

Compound `[C-]#[N+]C1(C)Cc2ccccc2C(=C)c2ccccc21` (stereo not drawn) yielded a melting point of 146 to 148 °C.

`CSc1ccccc1C(=O)Nc1ccc(C(=O)N2Cc3cccn3Cc3ccccc32)cc1` gave a melting point of 171 to 174 °C.

Compound `COc1cc(OC)c(/C=C/C(c2ccc(OC)c(NC(=O)CC(=O)O)c2)S(=O)(=O)C(/C=C/c2c(OC)cc(OC)cc2OC)c2ccc(OC)c(NC(=O)CC(=O)O)c2)c(OC)c1` (stereo not drawn) showed a melting point of 118 to 121 °C.

`CCC(C)CNC(=O)C(CC(O)C(CC(C)C)NC(=O)C(Cc1cscn1)NC(=O)C(CC(=O)N(C)C1CCCCC1)Cc1cccc2ccccc12)C(C)(C)O` (mixture of isomers) returned a melting point of 187 to 190 °C.

In turn, `Nc1cccc(CN2C(=O)C3(COc4cc5c(cc43)OCCO5)c3ccccc32)n1` (stereo not drawn) yielded a melting point of 240 to 241 °C.
